# Laboratory results from PubChem BioAssay (NCI).
#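 Interpolation was linear, between the two tested concentrations surrounding the appropriate level; five concentrations were tested over 48 hours in 96-well plates. TGI: total growth inhibition.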
# Experiments:
# Test in all cases: NCI-60 cell line screen, 48 h
# SW-620 colon = tested on: SW-620 colon
# SK-MEL-5 melanoma = tested on: SK-MEL-5 melanoma
# KM20L2 colon = tested on: KM20L2 colon
# XF 498 CNS = tested on: XF 498 CNS
# OVCAR-4 ovarian = tested on: OVCAR-4 ovarian
# SF-539 CNS = tested on: SF-539 CNS
# RXF 393 renal = tested on: RXF 393 renal
# COLO 205 colon = tested on: COLO 205 colon
# NCI-H522 lung = tested on: NCI-H522 lung
# IGROV1 ovarian = tested on: IGROV1 ovarian
# HCC-2998 colon = tested on: HCC-2998 colon
# HL-60(TB) leukemia = tested on: HL-60(TB) leukemia
# HOP-92 NSCLC = tested on: HOP-92 NSCLC
# MALME-3M melanoma = tested on: MALME-3M melanoma
# SN12C renal = tested on: SN12C renal
# OVCAR-8 ovarian = tested on: OVCAR-8 ovarian
# A498 renal = tested on: A498 renal
# DMS 114 small cell lung = tested on: DMS 114 small cell lung
# SNB-78 CNS = tested on: SNB-78 CNS
# NCI-H460 lung = tested on: NCI-H460 lung
# TK-10 renal = tested on: TK-10 renal
# SF-295 CNS = tested on: SF-295 CNS
# SNB-19 CNS = tested on: SNB-19 CNS
# M14 melanoma = tested on: M14 melanoma
# CCRF-CEM leukemia = tested on: CCRF-CEM leukemia
# A549 NSCLC = tested on: A549 NSCLC
# NCI-H226 lung = tested on: NCI-H226 lung
# RPMI-8226 leukemia = tested on: RPMI-8226 leukemia
# 786-0 renal = tested on: 786-0 renal
# K-562 leukemia = tested on: K-562 leukemia
# UO-31 renal = tested on: UO-31 renal
# LOX IMVI melanoma = tested on: LOX IMVI melanoma
# DMS 273 small cell lung = tested on: DMS 273 small cell lung
# LXFL 529 NSCLC = tested on: LXFL 529 NSCLC
# OVCAR-5 ovarian = tested on: OVCAR-5 ovarian
# UACC-257 melanoma = tested on: UACC-257 melanoma
# OVCAR-3 ovarian = tested on: OVCAR-3 ovarian
# ACHN renal = tested on: ACHN renal
# U251 CNS = tested on: U251 CNS
# CAKI-1 renal = tested on: CAKI-1 renal
# M19-MEL melanoma = tested on: M19-MEL melanoma
# HCT-116 colon = tested on: HCT-116 colon
# HT29 colon = tested on: HT29 colon
# SK-MEL-28 melanoma = tested on: SK-MEL-28 melanoma
# NCI-H23 lung = tested on: NCI-H23 lung
# UACC-62 melanoma = tested on: UACC-62 melanoma
# EKVX NSCLC = tested on: EKVX NSCLC
# DLD-1 colon = tested on: DLD-1 colon
# HOP-62 NSCLC = tested on: HOP-62 NSCLC
# SF-268 CNS = tested on: SF-268 CNS
# SNB-75 CNS = tested on: SNB-75 CNS
# KM12 colon = tested on: KM12 colon
# SK-OV-3 ovarian = tested on: SK-OV-3 ovarian
# RXF-631 renal = tested on: RXF-631 renal
# HOP-18 NSCLC = tested on: HOP-18 NSCLC
# SR leukemia = tested on: SR leukemia
# HCT-15 colon = tested on: HCT-15 colon
compound,measurement,setting,value
CCOC(=O)C1N(S(=O)(=O)c2ccc(C)cc2)CCC12c1ccccc1N(C(C)=O)C2C(/C=C/C(=O)OC)=C/C(=O)OC (centres undefined),TGI,SW-620 colon,> 100 µM
same,TGI,SK-MEL-5 melanoma,> 100 µM
same,TGI,KM20L2 colon,> 100 µM
same,TGI,XF 498 CNS,> 100 µM
same,TGI,OVCAR-4 ovarian,> 100 µM
same,TGI,SF-539 CNS,> 100 µM
same,TGI,RXF 393 renal,> 100 µM
same,TGI,COLO 205 colon,> 100 µM
same,TGI,NCI-H522 lung,> 100 µM
same,TGI,IGROV1 ovarian,> 100 µM
same,TGI,HCC-2998 colon,> 100 µM
same,TGI,HL-60(TB) leukemia,> 100 µM
same,TGI,HOP-92 NSCLC,> 100 µM
same,TGI,MALME-3M melanoma,> 100 µM
same,TGI,SN12C renal,> 100 µM
same,TGI,OVCAR-8 ovarian,> 100 µM
same,TGI,A498 renal,> 100 µM
same,TGI,DMS 114 small cell lung,> 100 µM
same,TGI,SNB-78 CNS,> 100 µM
same,TGI,NCI-H460 lung,> 100 µM
same,TGI,TK-10 renal,> 100 µM
same,TGI,SF-295 CNS,> 100 µM
same,TGI,SNB-19 CNS,> 100 µM
same,TGI,M14 melanoma,> 100 µM
same,TGI,CCRF-CEM leukemia,> 100 µM
same,TGI,A549 NSCLC,> 100 µM
same,TGI,NCI-H226 lung,> 100 µM
same,TGI,RPMI-8226 leukemia,> 100 µM
same,TGI,786-0 renal,> 100 µM
same,TGI,K-562 leukemia,> 100 µM
same,TGI,UO-31 renal,> 100 µM
same,TGI,LOX IMVI melanoma,> 100 µM
same,TGI,DMS 273 small cell lung,> 100 µM
same,TGI,LXFL 529 NSCLC,> 100 µM
same,TGI,OVCAR-5 ovarian,> 100 µM
same,TGI,UACC-257 melanoma,> 100 µM
same,TGI,OVCAR-3 ovarian,> 100 µM
same,TGI,ACHN renal,> 100 µM
same,TGI,U251 CNS,> 100 µM
same,TGI,CAKI-1 renal,> 100 µM
same,TGI,M19-MEL melanoma,> 100 µM
same,TGI,HCT-116 colon,> 100 µM
same,TGI,HT29 colon,> 100 µM
same,TGI,SK-MEL-28 melanoma,> 100 µM
same,TGI,NCI-H23 lung,> 100 µM
same,TGI,UACC-62 melanoma,> 100 µM
same,TGI,EKVX NSCLC,> 100 µM
same,TGI,DLD-1 colon,> 100 µM
same,TGI,HOP-62 NSCLC,> 100 µM
same,TGI,SF-268 CNS,> 100 µM
same,TGI,SNB-75 CNS,> 100 µM
same,TGI,KM12 colon,> 100 µM
same,TGI,SK-OV-3 ovarian,> 100 µM
O=C1C2c3[nH]c4ccccc4c3[C@@H]3CCCCCCCCCCC3C2C(=O)N1c1ccccc1 (some centres undefined),TGI,RXF-631 renal,28 µM
same,TGI,SW-620 colon,35.5 µM
same,TGI,SK-MEL-5 melanoma,> 100 µM
same,TGI,HOP-18 NSCLC,99.6 µM
same,TGI,OVCAR-4 ovarian,57.5 µM
same,TGI,SF-539 CNS,24.3 µM
same,TGI,RXF 393 renal,32.7 µM
same,TGI,COLO 205 colon,58.5 µM
same,TGI,IGROV1 ovarian,43.6 µM
same,TGI,HCC-2998 colon,> 100 µM
same,TGI,HL-60(TB) leukemia,30.2 µM
same,TGI,SN12C renal,54 µM
same,TGI,OVCAR-8 ovarian,42 µM
same,TGI,DMS 114 small cell lung,37 µM
same,TGI,SNB-78 CNS,24.7 µM
same,TGI,NCI-H460 lung,34.8 µM
same,TGI,TK-10 renal,44.3 µM
same,TGI,SF-295 CNS,42.1 µM
same,TGI,SNB-19 CNS,30.3 µM
same,TGI,M14 melanoma,34.3 µM
same,TGI,A549 NSCLC,62.4 µM
same,TGI,NCI-H226 lung,95 µM
same,TGI,RPMI-8226 leukemia,> 100 µM
same,TGI,786-0 renal,35.7 µM
same,TGI,K-562 leukemia,29.5 µM
same,TGI,UO-31 renal,> 100 µM
same,TGI,LOX IMVI melanoma,43.3 µM
same,TGI,DMS 273 small cell lung,> 100 µM
same,TGI,LXFL 529 NSCLC,28.1 µM
same,TGI,OVCAR-5 ovarian,> 100 µM
same,TGI,OVCAR-3 ovarian,33 µM
same,TGI,ACHN renal,> 100 µM
same,TGI,U251 CNS,37.8 µM
same,TGI,M19-MEL melanoma,57.4 µM
same,TGI,HT29 colon,> 100 µM
same,TGI,SK-MEL-28 melanoma,58.8 µM
same,TGI,SR leukemia,43.3 µM
same,TGI,NCI-H23 lung,37.5 µM
same,TGI,UACC-62 melanoma,59.2 µM
same,TGI,EKVX NSCLC,> 100 µM
same,TGI,DLD-1 colon,> 100 µM
same,TGI,SF-268 CNS,48.1 µM
same,TGI,SNB-75 CNS,6.44 µM
same,TGI,HCT-15 colon,> 100 µM
same,TGI,KM12 colon,42 µM
same,TGI,SK-OV-3 ovarian,23 µM
